From US7763625B2, “Agents for treating migraine” (Kyowa Hakko Kirin Co., Ltd., priority 2004, dated 2010)

Test system: basilar (cerebral) arteries
Assay: Contractile effects on basilar arteries (suppression of adenosine-induced relaxation of isolated cerebral artery rings)
Design: species or system Dogs
Conditions: isolated dog basilar artery rings relaxed with adenosine; test compound added cumulatively; in comparison with the Vehicle group
Source text: Dogs were anesthetized by intravenous injection of sodium pentobarbital, after which they were euthanized by exsanguination and subjected to craniotomy.
The basilar (cerebral) arteries were removed and cut into rings segments of about 2 mm in width. Each ring segment was fixed with a silk thread to a needle cut into about 2 mm in length. The needle was attached to a holder provided in an Easy-Magnus System (Model no. UC-2; IWASHIYA KISHIMOTO MEDICAL INSTRUMENTS); the ring segments were immersed in a nutritive solution and allowed to stabilize at a resting tension of 0.2 g (1.96 mN) for more than 60 minutes. Into the organ bath (2 mL) of the Easy-Magnus System, the cerebral artery was relaxed by application of 2 μL of 10 mmol/L adenosine aqueous solution. After that, the test compound was added cumulatively; 1 μL of 0.2 mmol/L dimethylsulfoxide solution, 1 μL of 0.4 mmol/L dimethylsulfoxide solution, and 0.7 μL of 2 mmol/L dimethylsulfoxide solution in order (Test compound-added group). Separately, in the same manner as in the Test compound-added group, dimethylsulfoxide alone was cumulatively added in place of the test compound (Vehicle group). The contraction of the cerebral artery was recorded on a recorder (Yokogawa) from an isometric force transducer (Nihon Kohden) connected to the holder, to which the ring was fixed, through a strain-pressure amplifier (Nihon Kohden). […]

In the case of `CCn1c(=O)c2c(nc(/C=C/c3ccc(OC)c(OC)c3)n2C)n(CC)c1=O` [Compound 2], the “suppression of the adenosine-induced relaxation of the cerebral artery” value is reported as “dose-dependently and significantly suppressed”.
